# Measured values from patent US10617641B2, “Composition for preventing or treating ischemic diseases, containing liposomes in which VEGF-derived peptides are supported” (INDUSTRIAL COOPERATION FOUNDATION CHONBUK NATIONAL …, priority 2015, dated 2020).
# System: myocardial infarction-induced rats
# Assay: Relative perfusion of the heart (99mTc-tetrofosmin autoradiography) in myocardial infarction model rats
# Assay type: in vivo, Sprague-Dawley rats
# Conditions: 200 μL through an apical puncture, after one week
# Procedure: First, 8-week-old Sprague-Dawley rats were purchased from Orientbio Inc., and acclimated for 3 days under conditions such as a temperature of 22±3° C., a relative humidity of 60±20%, an air ventilation cycle of 10 to 20 times/hour, a 12-hour light/dark cycle (light on 08:00 A.M. and light off 08:00 P.M.), sterile feed, and water supplies. […] After a week, ^99mtechnetium (Tc)-tetrofosmin was used as a myocardial perfusion imaging agent to obtain an autoradiographic images of rat hearts, and the relative perfusion was measured using a method represented by the following Equation 1 to evaluate an therapeutic effect of the VEGF-derived peptide. Relative perfusion (%)={(Activity value of ^99mTc-tetrofosmin in cardiac ischemic area)/Activity value of ^99mTc-tetrofosmin in septum)}×100 [Equation 1]
# All the subsequent statistical analyses were performed using SAS ver. 9.2 (SAS Institute, Cary, US), the significance of difference was determined using a Duncan's multiple range test (MRT) and ANOVA, and a significant difference at p<0.05 was evaluated. All data was assumed to be significant within a range of 5%, and represented by an average±standard deviation (SD).
substance,measurement,value
Ac-MRIKPHQGQHI-NH2 [VEGF-derived peptide],perfusion-improving effect (relative perfusion) compared to the control (PBS),significant results were not observed
